Results from publication PMC12186844 (ACS Chemical Neuroscience, 2025).
Numbering of substitutions follows the chain as printed.

How the values were obtained:
[1] = molecular target: SNAP-D2SR W384^7.40A (Homo sapiens, UniProt P14416, W413A); assay: functional cAMP assay, BRET biosensor; assay type: cell-based
Experimental: (§1) Flp-In-CHO cells stably coexpressing the CAMYEL biosensor and DRs were plated into white 96-well CulturPlates (Revvity) and grown overnight. The cells were equilibrated in Hank’s balanced salt solution (HBSS) at 37 °C (or 25 °C when indicated) before starting the experiment. The cells were costimulated with the agonists and 10 μM forskolin for the indicated time frames when the BRET readings were captured. Coelenterazine (Nanolight Technology, AZ) was added at a final concentration of 5 μM at least 3 min prior to measurement. […] Net BRET was determined by subtraction of the vehicle control coadded with 10 μM forskolin. For phenoxybenzamine alkylation experiments, the cells were treated with 0.1, 0.3, or 1 μM phenoxybenzamine (Sigma-Aldrich) diluted in HBSS and equilibrated at 37 °C for 30 min prior to the commencement of the assay.
(§2) Dose–response curves were fitted using the following three-parameter equation: response=bottom+top−bottom/1+10^(logEC50−log[A]) 5 where top and bottom represent the maximal and minimal asymptote of the dose response curve, [A] is the molar concentration of the agonist, and EC50 is the molar concentration of the agonist required to give a response half-way between bottom and top.

[2] = molecular target: SNAP-D2SR F50^1.48A (Homo sapiens, UniProt P14416, F50A); assay: cell membrane [3H]spiperone assay
Experimental: (§3) Flp-In-CHO cells stably expressing the wild-type or mutant DRs were grown to 90% confluence in 175 cm^2 cell culture flasks. The cells were harvested in PBS containing 2 mM EDTA and centrifuged at 300g for 3 min. The resulting pellet was resuspended in ice-cold assay buffer (20 mM HEPES, 100 mM NaCl, 6 mM MgCl2, 1 mM EGTA, and 1 mM EDTA, pH 7.4), and the centrifugation step was repeated. The intact cell pellet was then resuspended in assay buffer and homogenized using a Polytron homogenizer. After centrifugation (1000g, 10 min), the pellet was discarded, and the supernatant was recentrifuged at 30,000g for 1 h at 4 °C using a Sorvall Evolution RC ultracentrifuge (Thermo Scientific). The resulting pellet was resuspended in assay buffer and stored in 250 μL aliquots at −80 °C. Membrane protein concentration was determined using a Pierce’s BCA protein assay kit (Thermo Fisher, Melbourne).
(§4) [^3H]­Spiperone binding experiments using cell membranes were conducted in a 200 μL reaction volume in assay buffer (20 mM HEPES, 100 mM NaCl, 6 mM MgCl2, 1 mM EGTA, and 1 mM EDTA, pH 7.4) containing 100 μM GppNHp and 0.1% ascorbic acid in 96-well plates. […] In all cases, nonspecific binding was determined in the presence of 10 μM haloperidol. To obtain affinity estimates of unlabeled agonists, competition binding experiments were performed at equilibrium. […] After this incubation period, bound and free radioligands were separated by fast-flow filtration through UniFilter-96 GF/B plates using a MicroBeta FilterMate harvester (Revvity) followed by three washes with ice-cold 0.9% NaCl. Filter bound radioactivity was detected as a chemiluminescence after the addition of MicroScint-20 (Revvity) in a MicroBeta plate counter (Revvity).
(§5) IC50 values obtained from the inhibition curves were converted to Ki values using the Cheng and Prusoff equation.

[3] = molecular target: SNAP-D2SR G51^1.49A (Homo sapiens, UniProt P14416, G51A); assay: cell membrane [3H]spiperone assay
Experimental: as §3
(§6) [^3H]­Spiperone binding experiments using cell membranes were conducted in a 200 μL reaction volume in assay buffer (20 mM HEPES, 100 mM NaCl, 6 mM MgCl2, 1 mM EGTA, and 1 mM EDTA, pH 7.4) containing 100 μM GppNHp and 0.1% ascorbic acid in 96-well plates. […] In all cases, nonspecific binding was determined in the presence of 10 μM haloperidol. […] Filter bound radioactivity was detected as a chemiluminescence after the addition of MicroScint-20 (Revvity) in a MicroBeta plate counter (Revvity). […]

[4] = molecular target: T1, D2R (Homo sapiens, UniProt P14416); assay: D2R internalization whole cell ELISA; assay type: cell-based
T1 construct: expressed in transfected cells; host or cells: CHO cells stably overexpressing GRK2, transient

[5] = molecular target: SNAP-D2SR V91^2.61A (Homo sapiens, UniProt P14416, V91A); assay: functional cAMP assay, BRET biosensor; assay type: cell-based
Experimental: as §1, §2

[6] = molecular target: T2, SNAP-D2SR I128^3.46A (Homo sapiens, UniProt P14416, I128A); assay: functional cAMP assay, BRET biosensor; assay type: cell-based
T2 sequence (P14416 1-414 isoform P14416-2 I128A): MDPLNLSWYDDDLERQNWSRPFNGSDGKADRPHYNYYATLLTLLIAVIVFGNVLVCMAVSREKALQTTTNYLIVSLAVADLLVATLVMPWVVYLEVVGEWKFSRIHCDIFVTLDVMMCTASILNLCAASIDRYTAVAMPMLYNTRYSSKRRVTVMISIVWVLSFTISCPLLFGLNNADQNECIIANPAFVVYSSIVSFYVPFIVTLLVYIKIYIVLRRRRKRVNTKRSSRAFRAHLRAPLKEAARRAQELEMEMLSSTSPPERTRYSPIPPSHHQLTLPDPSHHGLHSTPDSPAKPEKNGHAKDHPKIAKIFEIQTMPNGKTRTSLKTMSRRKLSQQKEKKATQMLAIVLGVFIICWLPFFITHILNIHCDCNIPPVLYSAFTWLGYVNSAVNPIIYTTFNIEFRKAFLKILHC
Experimental: (§7) Flp-In-CHO cells stably coexpressing the CAMYEL biosensor and DRs were plated into white 96-well CulturPlates (Revvity) and grown overnight. The cells were equilibrated in Hank’s balanced salt solution (HBSS) at 37 °C (or 25 °C when indicated) before starting the experiment. The cells were costimulated with the agonists and 10 μM forskolin for the indicated time frames when the BRET readings were captured. Coelenterazine (Nanolight Technology, AZ) was added at a final concentration of 5 μM at least 3 min prior to measurement. […] Net BRET was determined by subtraction of the vehicle control coadded with 10 μM forskolin.
as §2

[7] = molecular target: T3, SNAP-D2SR S121^3.39A (Homo sapiens, UniProt P14416, S121A); assay: functional cAMP assay, BRET biosensor; assay type: cell-based
T3 sequence (P14416 1-414 isoform P14416-2 S121A): T2 sequence (P14416 1-414 isoform P14416-2 I128A) with S121A, A128I
Experimental: as §7, §2

[8] = molecular target: SNAP-D2SR W100^ECL1A (Homo sapiens, UniProt P14416, W100A); assay: functional cAMP assay, BRET biosensor; assay type: cell-based
Experimental: as §1, §2

[9] = molecular target: SNAP-D2SR F408^8.54A (Homo sapiens, UniProt P14416, F437A); assay: cell membrane [3H]spiperone assay
Experimental: as §3, §6

[10] = molecular target: SNAP-D2SR I73^2.43A (Homo sapiens, UniProt P14416, I73A); assay: functional cAMP assay, BRET biosensor; assay type: cell-based; design: expressed in transfected cells
Experimental: as §7, §2

[11] = molecular target: SNAP-D2SR N393^7.49A (Homo sapiens, UniProt P14416, N422A); assay: cell membrane [3H]spiperone assay
Experimental: as §3, §6

[12] = molecular target: T3, SNAP-D2SR S121^3.39A; assay: cell membrane [3H]spiperone assay
Experimental: as §3, §6

[13] = molecular target: SNAP-D2SR F353^6.44A (Homo sapiens, UniProt P14416, F382A); assay: functional cAMP assay, BRET biosensor; assay type: cell-based
Experimental: as §7, §2

[14] = molecular target: SNAP-D2SR WT (Homo sapiens, UniProt P14416); assay: cell membrane [3H]spiperone assay
Experimental: as §3, §4, §5

[15] = molecular target: SNAP-D2SR L94^2.64A (Homo sapiens, UniProt P14416, L94A); assay: functional cAMP assay, BRET biosensor; assay type: cell-based
Experimental: as §1, §2

[16] = [3H]spiperone competition binding interaction experiment
[17] = read-out: D2 PAM2 KB (converted)

SNAP-D2SR W100^ECL1A, sequence (P14416 1-414 isoform P14416-2 W100A): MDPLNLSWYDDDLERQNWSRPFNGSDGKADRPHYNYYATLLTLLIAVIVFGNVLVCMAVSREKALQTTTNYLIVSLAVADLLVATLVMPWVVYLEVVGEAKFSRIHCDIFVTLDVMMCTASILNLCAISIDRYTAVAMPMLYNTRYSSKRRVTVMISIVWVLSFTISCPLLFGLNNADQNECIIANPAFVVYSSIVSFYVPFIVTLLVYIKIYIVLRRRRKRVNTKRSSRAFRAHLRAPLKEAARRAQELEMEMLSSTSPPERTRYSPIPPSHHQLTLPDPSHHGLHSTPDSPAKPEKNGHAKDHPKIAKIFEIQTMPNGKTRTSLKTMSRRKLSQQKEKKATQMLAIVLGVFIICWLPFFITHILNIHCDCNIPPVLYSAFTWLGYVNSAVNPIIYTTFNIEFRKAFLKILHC
SNAP-D2SR WT, sequence (P14416 1-414 isoform P14416-2): as the sequence (P14416 1-414 isoform P14416-2 W100A) above, with A100W counted along it
SNAP-D2SR I73^2.43A, sequence (P14416 1-414 isoform P14416-2 I73A): as the sequence (P14416 1-414 isoform P14416-2 W100A) above, with I73A, A100W counted along it
SNAP-D2SR L94^2.64A, sequence (P14416 1-414 isoform P14416-2 L94A): as the sequence (P14416 1-414 isoform P14416-2 W100A) above, with L94A, A100W counted along it
SNAP-D2SR F353^6.44A, sequence (P14416 1-414 isoform P14416-2 F353A): as the sequence (P14416 1-414 isoform P14416-2 W100A) above, with A100W, F353A counted along it
SNAP-D2SR W384^7.40A, sequence (P14416 1-414 isoform P14416-2 W384A): as the sequence (P14416 1-414 isoform P14416-2 W100A) above, with A100W, W384A counted along it
SNAP-D2SR F50^1.48A, sequence (P14416 1-414 isoform P14416-2 F50A): as the sequence (P14416 1-414 isoform P14416-2 W100A) above, with F50A, A100W counted along it
T1 sequence (P14416 whole entry): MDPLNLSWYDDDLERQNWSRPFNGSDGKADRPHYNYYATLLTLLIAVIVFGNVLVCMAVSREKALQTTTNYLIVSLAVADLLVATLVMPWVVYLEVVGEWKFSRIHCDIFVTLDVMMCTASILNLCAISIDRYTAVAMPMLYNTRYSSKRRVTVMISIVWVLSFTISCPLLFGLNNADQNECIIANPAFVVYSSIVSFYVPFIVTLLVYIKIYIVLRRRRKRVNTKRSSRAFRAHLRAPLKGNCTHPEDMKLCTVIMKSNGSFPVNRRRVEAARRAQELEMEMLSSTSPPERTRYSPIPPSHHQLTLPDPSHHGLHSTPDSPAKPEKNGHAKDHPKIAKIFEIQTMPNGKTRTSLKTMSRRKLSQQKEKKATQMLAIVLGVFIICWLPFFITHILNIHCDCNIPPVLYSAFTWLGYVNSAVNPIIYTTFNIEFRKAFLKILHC
SNAP-D2SR V91^2.61A, sequence (P14416 1-414 isoform P14416-2 V91A): as the sequence (P14416 1-414 isoform P14416-2 W100A) above, with V91A, A100W counted along it
SNAP-D2SR N393^7.49A, sequence (P14416 1-414 isoform P14416-2 N393A): as the sequence (P14416 1-414 isoform P14416-2 W100A) above, with A100W, N393A counted along it
SNAP-D2SR G51^1.49A, sequence (P14416 1-414 isoform P14416-2 G51A): as the sequence (P14416 1-414 isoform P14416-2 W100A) above, with G51A, A100W counted along it
SNAP-D2SR F408^8.54A, sequence (P14416 1-414 isoform P14416-2 F408A): as the sequence (P14416 1-414 isoform P14416-2 W100A) above, with A100W, F408A counted along it

Kb [1]: 13.8 µM | Logτ [1]: -0.24 ± 0.08 | pKB [1]: 4.86 ± 0.24 | τ [1]: 0.57 | Logαβ ([1]; with DA): 1.04 ± 0.15 | αβ ([1]; with DA): 11.0 | pKB [2, 16]: 5.57 ± 0.25 | fold decrease in cooperativity with DA vs WT ([2]; binding): 5 fold | Kb ([2]; binding interaction experiment): 3000 nM | log α ([2]; cooperativity with DA, binding): 0.33 ± 0.03 | α ([2]; cooperativity with DA, binding): 2.1 | fold shift + 10 μM PAM ([2]; shift of DA IC50): 1.7 fold | ΔpIC50 + 10 μM PAM ([2]; shift of DA pIC50): 0.22 ± 0.12 | fold shift + 10 μM PAM ([3]; shift of DA IC50): 0.8 fold | ΔpIC50 + 10 μM PAM ([3]; shift of DA pIC50): –0.08 ± 0.17 | pKB [4]: 5.30 ± 0.29 | LogτB ([4]; intrinsic efficacy): -2.20 ± 0.23 | Logαβ ([4]; with dopamine): 0.99 ± 0.21 | Kb [5]: 2600 nM | Logτ [5]: -0.23 ± 0.08 | pKB [5]: 5.59 ± 0.21 | τ [5]: 0.59 | Logαβ ([5]; with DA): 0.93 ± 0.18 | αβ ([5]; with DA): 8.5 | D2 PAM2 log τ [6]: –3 | D2 PAM2 pKB [6]: 4.90 ± 0.18 | Kb [6, 17]: 13 µM | D2 PAM2 log αβ ([6]; with DA): 1.63 ± 0.17 | D2 PAM2 αβ ([6]; with DA): 43 | D2 PAM2 log τ [7]: –1.18 ± 0.15 | D2 PAM2 pKB [7]: 4.83 ± 0.11 | D2 PAM2 τ [7]: 0.06 | Kb [7, 17]: 15 µM | D2 PAM2 log αβ ([7]; with DA): 1.14 ± 0.06 | D2 PAM2 αβ ([7]; with DA): 14 | Kb [8]: 11.7 µM | Logτ [8]: -0.43 ± 0.06 | pKB [8]: 4.93 ± 0.28 | τ [8]: 0.37 | Logαβ ([8]; with DA): 1.54 ± 0.10 | αβ ([8]; with DA): 34.7 | fold shift + 10 μM PAM ([9]; shift of DA IC50): 0.85 fold | ΔpIC50 + 10 μM PAM ([9]; shift of DA pIC50): –0.07 ± 0.14 | D2 PAM2 log τ [10]: –1.11 ± 0.16 | D2 PAM2 pKB [10]: 5.24 ± 0.16 | D2 PAM2 τ [10]: 0.08 | fold decrease in cooperativity with DA ([10]; cAMP): 2.8 fold | Kb [10, 17]: 6 µM | D2 PAM2 log αβ ([10]; with DA): 0.79 ± 0.07 | D2 PAM2 αβ ([10]; with DA): 6.1 | fold shift + 10 μM PAM ([11]; shift of DA IC50): 0.8 fold | ΔpIC50 + 10 μM PAM ([11]; shift of DA pIC50): –0.08 ± 0.10 | fold shift + 10 μM PAM ([12]; shift of DA IC50): 2.6 fold | ΔpIC50 + 10 μM PAM ([12]; shift of DA pIC50): 0.41 ± 0.18 | D2 PAM2 log τ [13]: –1.06 ± 0.21 | D2 PAM2 pKB [13]: 5.13 ± 0.16 | D2 PAM2 τ [13]: 0.09 | Kb [13, 17]: 7.4 µM | D2 PAM2 log αβ ([13]; with DA): 1.06 ± 0.21 | D2 PAM2 αβ ([13]; with DA): 11 | pKB [14, 16]: 5.04 ± 0.17 | Kb ([14]; binding interaction experiment): 9 µM | log α ([14]; cooperativity with DA, binding): 1.05 ± 0.10 | α ([14]; cooperativity with DA, binding): 11 | fold shift + 10 μM PAM ([14]; shift of DA IC50): 9 fold | ΔpIC50 + 10 μM PAM ([14]; shift of DA pIC50): 0.97 ± 0.20 | Kb [15]: 12.6 µM | Logτ [15]: -0.43 ± 0.07 | pKB [15]: 4.90 ± 0.12 | τ [15]: 0.37 | Logαβ ([15]; with DA): 1.54 ± 0.10 | αβ ([15]; with DA): 34.7
Structure (SMILES): COc1cc(CO)c(F)cc1C(=O)n1ccc2c(F)cccc21 [D2 PAM2, [5-fluoro-4-(hydroxymethyl)-2-methoxyphenyl]-(4-fluoro-1H-indol-1-yl)methanone]
